Like-named read-outs stand apart in the source and are kept apart here.
Assays:
[1] = stored at 4° C.
Description: For the determination of the purity and of the ratio of the diastereoisomers a sample of the compound of formula IV was washed with 94% (v/v) aqueous ethanol and was then dried under reduced pressure.

[2] = stored at 25° C. under vacuum [2 mbar]

| HPLC purity (%) ([1]; time 0 months) | HPLC purity (%) ([1]; time 6 months) | HPLC assay (%) ([2]; time 0 months) | HPLC purity (%) ([2]; time 0 months) | HPLC assay (%) ([2]; time 1 month) | HPLC purity (%) ([2]; time 1 month) | HPLC assay (%) ([2]; time 2 months) | HPLC purity (%) ([2]; time 2 months) | HPLC assay (%) ([2]; time 3 months) | HPLC purity (%) ([2]; time 3 months) | HPLC assay (%) ([2]; time 6 months) | HPLC purity (%) ([2]; time 6 months) | HPLC assay (%) ([2]; time 9 months) | HPLC purity (%) ([2]; time 9 months) | SMILES |
| --- | --- | --- | --- | --- | --- | --- | --- | --- | --- | --- | --- | --- | --- | --- |
| 96.45% | 96.66% |  |  |  |  |  |  |  |  |  |  |  |  | CN1c2c(nc(N)[nH]c2=O)NC[C@@H]1CNc1ccc(C(=O)N[C@@H](CCC(=O)O)C(=O)O)cc1 [formula IV, (6S)—N(5)-methyl-5,6,7,8-tetrahydrofolic acid] |
|  |  | 99.0% | 98.7% | 98.8% | 98.7% | 99.8% | 98.9% | 100.2% | 98.8% | 99.9% | 98.5% | 100.7% | 98.9% | CN1c2c(nc(N)[nH]c2=O)NC[C@@H]1CNc1ccc(C(=O)NC(CCC(=O)[O-])C(=O)[O-])cc1.[Ca+2] (stereo partly drawn) [formula V, calcium salt of (6S)—N(5)-methyl-5,6,7,8-tetrahydrofolic acid] |

From patent US8754212B2, “Process for the preparation of stable, amorphous calcium salt of (6S)-N(5)-methyl-5,6,7,8-tetrahydrofolic acid” (Cerbios-Pharma S.A., priority 2007, dated 2014)
